{"source": "paper PMC9161374", "about": "(Science Translational Medicine, 2022)", "key": {"[1]": {"test_system": "SARS-CoV-2 (Omicron, B.1.1.529)", "conditions": "Omicon, Vero E6, replicates, listed as Remdsivir"}, "[2]": {"test_system": "SARS-CoV-2 (Delta, B.1.617.2)", "assay": "microbe, parasite or virus in culture", "assay_type": "cell-based", "conditions": "for % Inhibition: delta, listed as Remdsivir"}, "SARS-CoV-2 (B.1)": {"test_system": "SARS-CoV-2 (B.1)", "assay": "Anti-SARS-CoV-2 activity in Vero E6 cells (viral yield by qRT-PCR)", "assay_type": "cell-based", "conditions": "for % Inhibition: listed as Remdsivir"}, "[3]": {"test_system": "SARS-CoV-2 (Beta, B.1.351)", "assay": "microbe, parasite or virus in culture", "assay_type": "cell-based", "conditions": "for % Inhibition: beta, listed as Remdsivir"}, "[4]": {"test_system": "SARS-CoV-2 (Omicron, B.1.1.529)", "assay": "microbe, parasite or virus in culture"}, "COVID-19": {"test_system": "COVID-19", "parameters": "method as in PMID 34937145", "conditions": "administered early to non-hospitalized, high-risk patients ref 27; cited from earlier work"}, "[5]": {"assay": "CCK-8 cell viability assay", "assay_type": "cell-based, African green monkey", "conditions": "African green monkey; Vero E6 cells, 48 h, CCK8", "protocol": "To investigate the effect of drugs on cell viability, Vero E6 cells were seeded in 96-well plates at a density of 20,000 cells per well and were treated with drugs at indicated concentrations (0, 0.01, 0.1, 1, 5, 10, 50, 75, 100, 200 μM) for 48 hours. Cell viability was tested by using Cell Counting Kit-8 (CCK-8, Bimake, B34302). The figures were plotted from cell viability percentage versus the drug concentrations using GraphPad Prism 6 software.\nFig. S4. Cytotoxicity assay of compounds in Vero E6 cells.\nVero E6 cells were plated in 96-well plates and treated with increasing concentrations\nof each indicated compound, ranging from 0 to 200 μM, for 48 hours. Cell viability was\ntested using Cell Counting Kit-8 (CCK-8). Data are presented as mean ± SD."}, "[6]": {"conditions": "Severe acute respiratory syndrome coronavirus 2, Vero C1008, read-out: EC90 (Confidence 95%)"}}, "note": "Where “and” joins values, the source holds several entries; their conditions need not be identical. Equal values may be shown once. Read-outs that look alike come from different tables or passages of the source.", "data": [{"smiles": "CCC(CC)COC(=O)[C@H](C)N[P@](=O)(OC[C@H]1O[C@@](C#N)(c2ccc3c(N)ncnn23)[C@H](O)[C@@H]1O)Oc1ccccc1", "note": "[Remdesivir, remdesivir, reference compound]", "values": [{"measurement": "% Inhibition", "setting": "[1]; 2.5 uM", "result": "31.5626% and 77.85% and 88.9906%"}, {"measurement": "% Inhibition", "setting": "[1]; 5 uM", "result": "96.6907% and 99.2675%"}, {"measurement": "% Inhibition", "setting": "[1]; 10 uM", "result": "99.9718% and 99.9679%"}, {"measurement": "EC50", "setting": "[2]; Severe acute respiratory syndrome coronavirus 2, Vero C1008, 48 h, read-out: EC50 in Vero E6 cells, SARS-CoV-2 (Delta, B.1.617.2)", "result": 1.65, "unit": "µM"}, {"measurement": "inhibition at 0.01 µM", "setting": "[2]; Severe acute respiratory syndrome coronavirus 2, Vero C1008, delta, 0.01 uM, Vero E6, replicates", "result": 0, "unit": "%"}, {"measurement": "inhibition at 0.1 µM", "setting": "[2]; Severe acute respiratory syndrome coronavirus 2, Vero C1008, delta, 0.1 uM, Vero E6, replicates", "result": 0, "unit": "%"}, {"measurement": "inhibition at 0.25 µM", "setting": "[2]; Severe acute respiratory syndrome coronavirus 2, Vero C1008, delta, 0.25 uM, Vero E6, replicates", "result": 0, "unit": "%"}, {"measurement": "inhibition at 0.5 µM", "setting": "[2]; Severe acute respiratory syndrome coronavirus 2, Vero C1008, delta, 0.5 uM, Vero E6, replicates", "result": 0, "unit": "%"}, {"measurement": "inhibition at 1 µM", "setting": "[2]; Severe acute respiratory syndrome coronavirus 2, Vero C1008, delta, 1 uM, Vero E6, replicates", "result": 55.7, "unit": "%"}, {"measurement": "inhibition at 2 µM", "setting": "[2]; Severe acute respiratory syndrome coronavirus 2, Vero C1008, delta, 2 uM, Vero E6, replicates", "result": 58, "unit": "%"}, {"measurement": "inhibition at 5 µM", "setting": "[2]; Severe acute respiratory syndrome coronavirus 2, Vero C1008, delta, 5 uM, Vero E6, replicates", "result": 77.1, "unit": "%"}, {"measurement": "inhibition at 10 µM", "setting": "[2]; Severe acute respiratory syndrome coronavirus 2, Vero C1008, delta, 10 uM, Vero E6, replicates", "result": 99.2, "unit": "%"}, {"measurement": "inhibition at 50 µM", "setting": "[2]; Severe acute respiratory syndrome coronavirus 2, Vero C1008, delta, 50 uM, Vero E6, replicates", "result": 99.9, "unit": "%"}, {"measurement": "EC90", "setting": "[2]; Severe acute respiratory syndrome coronavirus 2, Vero C1008, read-out: EC90 (Confidence 95%), Vero-E6, Delta B.1.617.2", "result": 7.34, "unit": "µM"}, {"measurement": "% Inhibition", "setting": "[2]; 1 uM, Vero E6, replicates", "result": 43.4129, "unit": "%"}, {"measurement": "% Inhibition", "setting": "[2]; 2 uM, Vero E6, replicates", "result": 46.5254, "unit": "%"}, {"measurement": "% Inhibition", "setting": "[2]; 5 uM, Vero E6, replicates", "result": 77.4749, "unit": "%"}, {"measurement": "% Inhibition", "setting": "[2]; 10 uM, Vero E6, replicates", "result": 96.2382, "unit": "%"}, {"measurement": "% Inhibition", "setting": "[2]; 50 uM, Vero E6, replicates", "result": 99.3849, "unit": "%"}, {"measurement": "% Inhibition", "setting": "SARS-CoV-2 (B.1); B.1, 2 uM, Vero E6, replicates, 2 µM", "result": 36.1424, "unit": "%"}, {"measurement": "% Inhibition", "setting": "SARS-CoV-2 (B.1); B.1, 5 uM, Vero E6, replicates, 5 µM", "result": 93.823, "unit": "%"}, {"measurement": "% Inhibition", "setting": "SARS-CoV-2 (B.1); B.1, 10 uM, Vero E6, replicates, 10 µM", "result": 98.7241, "unit": "%"}, {"measurement": "% Inhibition", "setting": "SARS-CoV-2 (B.1); B.1, 50 uM, Vero E6, replicates, 50 µM", "result": 99.0519, "unit": "%"}, {"measurement": "inhibition at 0.01 µM", "setting": "SARS-CoV-2 (B.1); Severe acute respiratory syndrome coronavirus 2, Vero C1008, B.1, 0.01 uM, Vero E6, replicates", "result": 0, "unit": "%"}, {"measurement": "inhibition at 0.1 µM", "setting": "SARS-CoV-2 (B.1); Severe acute respiratory syndrome coronavirus 2, Vero C1008, B.1, 0.1 uM, Vero E6, replicates", "result": 0, "unit": "%"}, {"measurement": "inhibition at 0.25 µM", "setting": "SARS-CoV-2 (B.1); Severe acute respiratory syndrome coronavirus 2, Vero C1008, B.1, 0.25 uM, Vero E6, replicates", "result": 0, "unit": "%"}, {"measurement": "inhibition at 0.5 µM", "setting": "SARS-CoV-2 (B.1); Severe acute respiratory syndrome coronavirus 2, Vero C1008, B.1, 0.5 uM, Vero E6, replicates", "result": 0, "unit": "%"}, {"measurement": "inhibition at 1 µM", "setting": "SARS-CoV-2 (B.1); Severe acute respiratory syndrome coronavirus 2, Vero C1008, B.1, 1 uM, Vero E6, replicates", "result": 0, "unit": "%"}, {"measurement": "inhibition at 2 µM", "setting": "SARS-CoV-2 (B.1); Severe acute respiratory syndrome coronavirus 2, Vero C1008, B.1, 2 uM, Vero E6, replicates", "result": 39.1, "unit": "%"}, {"measurement": "inhibition at 5 µM", "setting": "SARS-CoV-2 (B.1); Severe acute respiratory syndrome coronavirus 2, Vero C1008, B.1, 5 uM, Vero E6, replicates", "result": 94.6, "unit": "%"}, {"measurement": "inhibition at 10 µM", "setting": "SARS-CoV-2 (B.1); Severe acute respiratory syndrome coronavirus 2, Vero C1008, B.1, 10 uM, Vero E6, replicates", "result": 98.6, "unit": "%"}, {"measurement": "inhibition at 50 µM", "setting": "SARS-CoV-2 (B.1); Severe acute respiratory syndrome coronavirus 2, Vero C1008, B.1, 50 uM, Vero E6, replicates", "result": 99.2, "unit": "%"}, {"measurement": "EC90", "setting": "SARS-CoV-2 (B.1); [6]", "result": 4.25, "unit": "µM"}, {"measurement": "EC50", "setting": "SARS-CoV-2 (B.1); Severe acute respiratory syndrome coronavirus 2, Vero C1008, MOI 0.05, 48 h", "result": 2.28, "unit": "µM"}, {"measurement": "EC50", "setting": "[3]; Severe acute respiratory syndrome coronavirus 2, Vero C1008, 48 h, read-out: EC50 in Vero E6 cells, SARS-CoV-2 (Beta, B.1.351)", "result": 1.78, "unit": "µM"}, {"measurement": "inhibition at 0.01 µM", "setting": "[3]; Severe acute respiratory syndrome coronavirus 2, Vero C1008, beta, 0.01 uM, Vero E6, replicates", "result": 0, "unit": "%"}, {"measurement": "inhibition at 0.1 µM", "setting": "[3]; Severe acute respiratory syndrome coronavirus 2, Vero C1008, beta, 0.1 uM, Vero E6, replicates", "result": 0, "unit": "%"}, {"measurement": "inhibition at 0.25 µM", "setting": "[3]; Severe acute respiratory syndrome coronavirus 2, Vero C1008, beta, 0.25 uM, Vero E6, replicates", "result": 0, "unit": "%"}, {"measurement": "inhibition at 0.5 µM", "setting": "[3]; Severe acute respiratory syndrome coronavirus 2, Vero C1008, beta, 0.5 uM, Vero E6, replicates", "result": 0, "unit": "%"}, {"measurement": "inhibition at 2 µM", "setting": "[3]; Severe acute respiratory syndrome coronavirus 2, Vero C1008, beta, 2 uM, Vero E6, replicates", "result": 65.2, "unit": "%"}, {"measurement": "inhibition at 5 µM", "setting": "[3]; Severe acute respiratory syndrome coronavirus 2, Vero C1008, beta, 5 uM, Vero E6, replicates", "result": 86.2, "unit": "%"}, {"measurement": "inhibition at 10 µM", "setting": "[3]; Severe acute respiratory syndrome coronavirus 2, Vero C1008, beta, 10 uM, Vero E6, replicates", "result": 99.9, "unit": "%"}, {"measurement": "inhibition at 50 µM", "setting": "[3]; Severe acute respiratory syndrome coronavirus 2, Vero C1008, beta, 50 uM, Vero E6, replicates", "result": 99.9, "unit": "%"}, {"measurement": "EC90", "setting": "[3]; Severe acute respiratory syndrome coronavirus 2, Vero C1008, read-out: EC90 (Confidence 95%), Vero-E6, Beta B.1.351", "result": 5.02, "unit": "µM"}, {"measurement": "% Inhibition", "setting": "[3]; 1 uM, Vero E6, replicates", "result": "35.9868% and 14.2725%"}, {"measurement": "% Inhibition", "setting": "[3]; 2 uM, Vero E6, replicates", "result": 49.345, "unit": "%"}, {"measurement": "% Inhibition", "setting": "[3]; 5 uM, Vero E6, replicates", "result": 85.4168, "unit": "%"}, {"measurement": "% Inhibition", "setting": "[3]; 10 uM, Vero E6, replicates", "result": 99.9589, "unit": "%"}, {"measurement": "% Inhibition", "setting": "[3]; 50 uM, Vero E6, replicates", "result": 99.9256, "unit": "%"}, {"measurement": "EC50", "setting": "[4]; Severe acute respiratory syndrome coronavirus 2, Vero C1008, 48 h, read-out: EC50 in Vero E6 cells, SARS-CoV-2 (Omicron, B.1.1.529)", "result": 1.24, "unit": "µM"}, {"measurement": "inhibition at 0.069 µM", "setting": "[4]; Severe acute respiratory syndrome coronavirus 2, Vero C1008, Omicon, 0.069 uM, Vero E6, replicates", "result": 0, "unit": "%"}, {"measurement": "inhibition at 5 µM", "setting": "[4]; Severe acute respiratory syndrome coronavirus 2, Vero C1008, Omicon, 5 uM, Vero E6, replicates", "result": 96.9, "unit": "%"}, {"measurement": "inhibition at 10 µM", "setting": "[4]; Severe acute respiratory syndrome coronavirus 2, Vero C1008, Omicon, 10 uM, Vero E6, replicates", "result": 100, "unit": "%"}, {"measurement": "EC90", "setting": "[4]; [6]", "result": 5.69, "unit": "µM"}, {"measurement": "reduction of the risk of hospitalization or death", "setting": "COVID-19", "result": 87, "unit": "%"}, {"measurement": "CC50 at 48 h", "setting": "[5]", "result": "> 50", "unit": "µM"}]}]}
